Tests used:
Adrenergic α2B Receptor = target: T1, Adrenergic α2B Receptor (Homo sapiens, UniProt P18089); test: Adrenergic α2B receptor radioligand binding; conditions: 10 μM; 2.5 nM [3H] Rauwolscine
T1 construct: expressed in transfected cells; host or cells: CHO-K1 cells
T1 sequence (P18089 1-450): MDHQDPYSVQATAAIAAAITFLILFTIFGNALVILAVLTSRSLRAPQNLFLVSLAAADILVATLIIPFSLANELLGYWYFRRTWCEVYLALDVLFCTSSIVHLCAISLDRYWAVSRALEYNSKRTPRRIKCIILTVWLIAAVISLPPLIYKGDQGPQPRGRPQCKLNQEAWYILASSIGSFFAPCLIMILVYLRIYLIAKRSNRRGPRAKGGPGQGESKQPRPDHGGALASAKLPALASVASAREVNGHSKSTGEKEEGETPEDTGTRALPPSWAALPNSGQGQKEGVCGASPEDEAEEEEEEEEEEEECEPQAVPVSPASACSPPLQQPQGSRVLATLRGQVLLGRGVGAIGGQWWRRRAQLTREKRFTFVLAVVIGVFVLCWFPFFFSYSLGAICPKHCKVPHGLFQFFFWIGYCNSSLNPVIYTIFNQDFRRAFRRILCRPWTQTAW
Description: (a) Adrenergic α2A Receptor: • Reference: S. Uhlen et al. J. Pharmacol. Exp. Ther., 271:1558-1565 (1994) • Source: Human recombinant insect Sf9 cells • Ligand: 1 nM [^3H] […] J. Pharmacol., 99:803-809, (1990) • Source: Wistar rat cerebral cortex • Ligand: 2 nM [3H]

VMAT1 = target: T2, VMAT1 (Rattus norvegicus, UniProt Q01818); test: VMAT1 functional assay: [3H] dopamine uptake, rat adrenal chromaffin cell vesicles in presence of 10 μM tetrabenazine; assay type: biochemical; conditions: for IC50: in the presence of 10 μM Tetrabenazine, read-out: IC50, inhibition of [3H] dopamine uptake
T2 construct: The vesicular fraction was isolated in an identical fashion to that described for the brain preparation; from tissue; host or cells: SD rat adrenal medulla chromaffin cells, vesicular fraction
T2 sequence (Q01818 1-521): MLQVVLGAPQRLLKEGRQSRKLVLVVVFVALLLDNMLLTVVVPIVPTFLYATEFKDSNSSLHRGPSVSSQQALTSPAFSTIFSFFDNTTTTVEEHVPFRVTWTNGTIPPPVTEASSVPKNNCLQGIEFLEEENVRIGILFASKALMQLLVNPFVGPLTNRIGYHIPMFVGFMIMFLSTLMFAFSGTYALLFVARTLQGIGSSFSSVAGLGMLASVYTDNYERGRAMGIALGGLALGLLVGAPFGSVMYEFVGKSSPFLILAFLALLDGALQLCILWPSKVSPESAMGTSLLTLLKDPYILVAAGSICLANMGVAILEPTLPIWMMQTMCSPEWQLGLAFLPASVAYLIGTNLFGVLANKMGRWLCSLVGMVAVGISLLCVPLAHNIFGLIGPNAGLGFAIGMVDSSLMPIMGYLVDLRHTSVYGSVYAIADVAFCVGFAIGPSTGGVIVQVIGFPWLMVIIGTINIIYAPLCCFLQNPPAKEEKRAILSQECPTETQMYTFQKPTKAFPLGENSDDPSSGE
Description: Thus, adrenal glands were dissected in ice cold PBS, the capsule and cortex of the glands removed and the remaining medullae were minced. After multiple washes with PBS, the tissue was incubated with Ca2+-free collagenase IA solution (250 U/ml) for 30 minutes at 30° C. with gentle stirring. The digested tissue was rinsed three times and the dissociated cells were centrifuged at 3000 rpm to form a pellet, which was resuspended in PBS. The vesicular fraction was isolated in an identical fashion to that described for the brain preparation.
100 μl (approx. 2.5 μg protein) of synaptic vesicles were preincubated with increasing concentrations of test compound (prepared as previously described for binding assay) for 30 minutes (concentration range 10^−9 M-10^−4 M). The assay was performed for 3 minutes at 30° C. in the assay buffer (25 mM HEPES, 100 mM potassium tartrate, 1.7 mM ascorbic acid, 0.05 mM EGTA, 0.1 mM EDTA, 2 mM ATP-Mg^2+, pH 7.5), in the presence of [^3H] dopamine (30 nM final concentration). [^3H] dopamine uptake was measured in the presence of 10 μM tetrabenazine (selectively blocks VMAT2 at this concentration). Non-specific uptake was determined by measuring vesicular [^3H] dopamine uptake at 4° C. The reaction was then terminated by addition of ice-cold buffer assay buffer pH 7.5, containing 2 mM MgSO4 instead of 2 mM ATP-Mg^2+, and rapid filtration achieved through Whatman filters soaked in 0.5% polyethyleneimine. The filters were washed three times with cold buffer using a Brandel Harvester and the radioactivity trapped on the filters was counted using a liquid scintillation counter.

Monoamine Oxidase MAO-A = target: T3, Monoamine Oxidase MAO-A (Homo sapiens, UniProt P21397); test: Monoamine Oxidase MAO-A inhibition; assay type: biochemical; conditions: for inhibition at 10 µM: read-out: Percentage Inhibition of Enzyme Activity, MAO-A
T3 sequence (P21397 1-527): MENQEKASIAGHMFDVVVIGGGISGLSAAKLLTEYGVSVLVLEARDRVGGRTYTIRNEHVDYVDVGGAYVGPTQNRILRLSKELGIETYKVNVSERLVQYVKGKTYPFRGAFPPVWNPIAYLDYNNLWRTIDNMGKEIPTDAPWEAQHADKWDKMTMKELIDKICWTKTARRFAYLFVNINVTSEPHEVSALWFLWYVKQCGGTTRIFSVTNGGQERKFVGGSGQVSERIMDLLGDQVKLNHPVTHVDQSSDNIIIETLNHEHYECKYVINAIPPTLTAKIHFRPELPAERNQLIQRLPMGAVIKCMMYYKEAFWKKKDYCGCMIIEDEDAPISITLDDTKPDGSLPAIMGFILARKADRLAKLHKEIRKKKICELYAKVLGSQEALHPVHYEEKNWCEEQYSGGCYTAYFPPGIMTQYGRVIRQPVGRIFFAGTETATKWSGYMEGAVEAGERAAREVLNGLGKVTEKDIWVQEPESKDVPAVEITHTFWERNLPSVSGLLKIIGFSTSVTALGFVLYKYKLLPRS
Description: Isomers B and C were tested for their ability to inhibit enzymes involved in the processing of monoamines in the CNS, namely Catechol O-Methyl Transferase (COMT), Monoamine Oxidase A and Monoamine Oxidase B. The assay methods used are described below and the results are set out in Table 7. (a) Catechol O-Methyl Transferase (COMT) Inhibition • Source: […] None • Incubation time: 60 minutes @ 37° C. • Incubation buffer: 100 mM potassium phosphate, 10 mM MgCl2, 3 mM DTT containing 12 units/ml adenosine deaminase, pH 7.4 • Quantitation method: […]

With COc1cc2c(cc1OC)[C@H]1C[C@H](O)[C@@H](CC(C)C)CN1CC2 (single isomer, unassigned) [Isomer B, 3,11b-cis-dihydrotetrabenazine] the “Percentage Inhibition of Specific Binding, α2B Receptor” value (Adrenergic α2B Receptor) was 14%, the “affinity for VMAT1 (in words)” value (VMAT1) was “low affinity for VMAT-1” and the IC50 (VMAT1) was > 10 µM. For the same compound, the “inhibitory activity against monoamine oxidase isoform A (in words)” value (Monoamine Oxidase MAO-A) was “no inhibitory activity” and the inhibition at 10 µM (Monoamine Oxidase MAO-A) was 3%.

In the case of COc1cc2c(cc1OC)[C@H]1C[C@@H](O)[C@@H](CC(C)C)CN1CC2 (single isomer, unassigned) [Isomer C, 3,11b-cis-dihydrotetrabenazine], the “Percentage Inhibition of Specific Binding, α2B Receptor” value (Adrenergic α2B Receptor) is reported as −7%, the “affinity for VMAT1 (in words)” value (VMAT1) is reported as “low affinity for VMAT-1” and the IC50 (VMAT1) is reported as > 10 µM. The “inhibitory activity against monoamine oxidase isoform A (in words)” value (Monoamine Oxidase MAO-A) was “no inhibitory activity” and the inhibition at 10 µM (Monoamine Oxidase MAO-A) was 3%.
